Laboratory results reported in patent US20120122848A1, “(+)-3-HYDROXYMORPHINAN DERIVATIVES AS NEUROPROTECTANTS” (GREEN CROSS CORPORATION, priority 2009, published 2012).
Structures can show the parent of a compound that is named as a salt.

Tests used:
[1] = system: HT22 cells (mouse hippocampal neuron); assay: Cell cytotoxicity test: protection of HT22 cells against glutamate toxicity (EC50) and cytotoxicity of the compounds (CC50), MTT; type: cell-based; settings: Mus musculus, HT-22, five millimolar glutamate, 24 hrs, read-out: EC50 (neuroprotective effect against glutamate toxicity)
Protocol: (§1) HT22 cells (mouse hippocampal neuron, Salk Institute and KRIBB) were plated in a 96-well plate at a density of 3×10^3 cells/well for 16 hrs before treatment. The cells were treated with five millimolar glutamate and various concentrations of the inventive compounds and incubated for 24 hrs in a growth media (DMEM with 10% FBS and 1% penicillin streptomycin). Then, the cells were treated with 3-(4,5-dimethylthiazol-2-yl)-2,5-diphenyltetrazolium bromide (MTT, Sigma®) for 4 hrs and absorbance of each well was measured with a plate reader at a wavelength of 450 nm. [Da-Qing, et. al., Anti-oxidant and anti-inflammatory activities of macelignan in murine hippocampal cell line and primary culture of rat microglia cells, BBRC, 2005, 331, 1264-1269].
(§2) In Table 1, EC50 is neuroprotective effect against glutamate toxicity and CC50 is cytotoxicity of the compounds. The EC50 values were statistically analyzed using Prizm® (GraphPad Software Inc., San Diego, Calif., USA).

[2] = as above; type: cell-based, mouse; settings: mouse, HT22 cells (mouse hippocampal neuron)
Protocol: as §1, §2

SMILES	EC50 [1] [µM]	CC50 at 24 h [2] [µM]
Oc1cc2c(cc1Nc1ccccc1OC(F)(F)F)C[C@@H]1NCC[C@]23CCCC[C@H]13 [Example 59, (+)-3-Hydroxy-2-(2-(trifluoromethoxy)phenylamino)morphinan TFA salt]	0.0693	1.7
Oc1ccccc1Nc1cc2c(cc1O)[C@]13CCCC[C@@H]1[C@H](C2)NCC3 [Example 43, (+)-3-Hydroxy-2-(2-hydroxyphenylamino)morphinan TFA salt]	0.00271	10.4
CCNC(=O)Nc1ccccc1Nc1cc2c(cc1O)[C@]13CCCC[C@@H]1[C@H](C2)NCC3 [Example 120, (+)-2-(2-(Ethylureido)phenylamino)-3-hydroxymorphinan TFA salt]	8.85	36.5
CCN(CC)c1cc2c(cc1O)[C@]13CCCC[C@@H]1[C@H](C2)NCC3 [Example 101, (+)-2-(Diethylamino)-3-hydroxymorphinan TFA salt]	14	> 100
CCCCS(=O)(=O)Nc1ccccc1Nc1cc2c(cc1O)[C@]13CCCC[C@@H]1[C@H](C2)NCC3 [Example 112, (+)-2-(2-(Butanesulfonamido)phenylamino)-3-hydroxymorphinan TFA salt]	0.0556	20
CS(=O)(=O)Nc1ccc(Nc2cc3c(cc2O)[C@]24CCCC[C@@H]2[C@H](C3)NCC4)cc1 [Example 114, (+)-3-Hydroxy-2-(4-(methanesulfonamido)phenylamino)morphinan TFA salt]	0.0329	11.4
CCNc1ccccc1Nc1cc2c(cc1O)[C@]13CCCC[C@@H]1[C@H](C2)NCC3 [Example 130, (+)-2-(2-(Ethylamino)phenylamino)-3-hydroxymorphinan TFA salt]	0.0112	1.6
Oc1cc2c(cc1Nc1cccc(F)c1)C[C@@H]1NCC[C@]23CCCC[C@H]13 [Example 39, (+)-2-(3-Fluorophenylamino)-3-hydroxymorphinan TFA salt]	0.145	13.8
Oc1cc2c(cc1NC1CCCCCC1)C[C@@H]1NCC[C@]23CCCC[C@H]13 [Example 94, (+)-2-Cycloheptylamino-3-hydroxymorphinan TFA salt]	0.102	7.55
Oc1cc2c(cc1Nc1ccc3c(c1)OCO3)C[C@@H]1NCC[C@]23CCCC[C@H]13 [Example 36, (+)-3-Hydroxy-2-((3,4-methylendioxy)phenylamino)morphinan TFA salt]	0.301	84.5
Oc1cc2c(cc1Nc1ccccc1F)C[C@@H]1NCC[C@]23CCCC[C@H]13 [Example 38, (+)-2-(2-Fluorophenylamino)-3-hydroxymorphinan TFA salt]	0.211	11.8
CC(C)Cc1cc2c(cc1O)[C@]13CCCC[C@@H]1[C@H](C2)NCC3 [Example 81, (+)-3-Hydroxy-2-isobutylmorphinan TFA salt]	1.43	11.3
Oc1cc2c(cc1Nc1ccc3c(c1)CCCC3)C[C@@H]1NCC[C@]23CCCC[C@H]13 [Example 71, (+)-3-Hydroxy-24(5,6,7,8-tetrahydronaphthalen-2-ybamino)morphinan TFA salt]	0.0362	1.6
CC(C)(C)c1ccccc1Nc1cc2c(cc1O)[C@]13CCCC[C@@H]1[C@H](C2)NCC3 [Example 51, (+)-2-(2-t-Butylphenylamino)-3-hydroxymorphinan TFA salt]	0.036	1.4
CC1CCN(c2cc3c(cc2O)[C@]24CCCC[C@@H]2[C@H](C3)NCC4)CC1 [Example 19, (+)-3-Hydroxy-2-(4-methylpiperidin-1-yl)morphinan TFA salt]	0.272	8.04
N#Cc1ccccc1Nc1cc2c(cc1O)[C@]13CCCC[C@@H]1[C@H](C2)NCC3 [Example 107, (+)-2-(2-Cyanophenylamino)-3-hydroxymorphinan TFA salt]	0.557	5.8
CC(Nc1cc2c(cc1O)[C@]13CCCC[C@@H]1[C@H](C2)NCC3)c1ccccc1 (stereo partly drawn) [Example 91, (+)-3-Hydroxy-2-(1-phenylethylamino)morphinan TFA salt]	0.0813	15
Oc1cc2c(cc1-c1ccc(F)cc1)C[C@@H]1NCC[C@]23CCCC[C@H]13 [Example 77, (+)-2-(4-Fluorophenyl)-3-hydroxymorphinan TFA salt]	3.11	8.3
Cc1ccccc1Nc1cc2c(cc1O)[C@]13CCCC[C@@H]1[C@H](C2)NCC3 [Example 41, (+)-3-Hydroxy-2-(2-methylphenylamino)morphinan TFA salt]	0.0178	6.9
CCCCNc1cc2c(cc1O)[C@]13CCCC[C@@H]1[C@H](C2)NCC3 [Example 90, (+)-2-Butylamino-3-hydroxymorphinan TFA salt]	0.0747	35
CC(C)(C)C(=O)Nc1ccccc1Nc1cc2c(cc1O)[C@]13CCCC[C@@H]1[C@H](C2)NCC3 [Example 115, (+)-3-Hydroxy-2-(2-(pivalamido)phenylamino)morphinan TFA salt]	2.5	53.6
CC1(c2cc3c(cc2O)[C@]24CCCC[C@@H]2[C@H](C3)NCC4)CCCCC1 [Example 105, (+)-3-Hydroxy-2-(1-methylcyclohexyl)morphinan TFA salt]	0.594	2.24
CC(C)Nc1cc2c(cc1O)[C@]13CCCC[C@@H]1[C@H](C2)NCC3 [Example 87, (+)-3-Hydroxy-2-isopropylaminomorphinan TFA salt]	0.0354	39.5
CC(C)(C)c1cc2c(cc1O)[C@]13CCCC[C@@H]1[C@H](C2)NCC3 [Example 104, (+)-2-tert-Butyl-3-hydroxymorphinan TFA salt]	1.37	10
CS(=O)(=O)Nc1ccccc1Nc1c(O)cc2c(c1Br)C[C@@H]1NCC[C@]23CCCC[C@H]13 [Example 132, (+)-1-Bromo-3-hydroxy-2-(2-(methanesulfonamido)phenylamino)morphinan TFA salt]	0.237	10.6
COc1ccc(Nc2cc3c(cc2O)[C@]24CCCC[C@@H]2[C@H](C3)NCC4)cc1 [Example 31, (+)-3-Hydroxy-2-(4-methoxyphenylamino)morphinan TFA salt]	0.0404	7.5
N#Cc1cccc(-c2cc3c(cc2O)[C@]24CCCC[C@@H]2[C@H](C3)NCC4)c1 [Example 78, (+)-2-(3-Cyanophenyl)-3-hydroxymorphinan TFA salt]	4.6	21
CNc1cc2c(cc1O)[C@]13CCCC[C@@H]1[C@H](C2)NCC3 [Example 18, (+)-3-Hydroxy-2-(methylamino)morphinan TFA salt]	0.193	59
CCNc1cc2c(cc1O)[C@]13CCCC[C@@H]1[C@H](C2)NCC3 [Example 23, (+)-2-Ethylamino-3-hydroxymorphinan TFA salt]	1.1	49.1
Oc1cc2c(cc1-c1ccc(Cl)cc1Cl)C[C@@H]1NCC[C@]23CCCC[C@H]13 [Example 76, (+)-2-(2,4-Dichlorophenyl)-3-hydroxymorphinan TFA salt]	2.97	4.4
